Series [1] in a line: Reversed-phase HPLC retention. The following applies: chromatographic, C-18 column. The class given is physicochemical.

For cyclo(FΦRRRRQ) [Peptide 11], the “Retention time by reversed-phase HPLC (measure of overall hydrophobicity)” value in series [1] is given as “virtually identical retention times”. As for “cyclo[(pCAP)FΦRRRRQ] (head to tail) [cyclic pCAP]”, in the series with MCF-7 and HEK293 cells, the “Intracellular CAP fluorescence after pretreatment with 1 mM sodium pervanadate” value was “dramatically reduced”.

The record behind these values is article PMC3574231 (ACS chemical biology, 2012).
